According to patent US12071425B2 (Genentech, Inc., priority 2018, dated 2024):
Structures can show the parent of a compound that is named as a salt.

Target: kinase domain of IRE1 alpha (His-tagged kinase dead construct KR, AA G547-L977, D688N) (Homo sapiens (Human), UniProt O75460, D688N)
Assay: IRE1α TR-FRET competition binding assay
Conditions: competition with Kinase Tracer 236, 0.1 μM; one hour at room temperature
Summary of the method: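 Compound displacement of an ATP-site fluorescent tracer (0.1 μM final) measured by TR-FRET after 1 h at room temperature. Protein, a His-tagged D688N kinase/RNase construct from Sf9 cells (0.006 μM final), was pre-bound 1 h at 4° C to Eu anti-His antibody (0.002 μM) in pH 7.5 HEPES buffer.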

Chain of kinase domain of IRE1 alpha (His-tagged kinase dead construct KR, AA G547-L977, D688N) (O75460 547-977 D688N): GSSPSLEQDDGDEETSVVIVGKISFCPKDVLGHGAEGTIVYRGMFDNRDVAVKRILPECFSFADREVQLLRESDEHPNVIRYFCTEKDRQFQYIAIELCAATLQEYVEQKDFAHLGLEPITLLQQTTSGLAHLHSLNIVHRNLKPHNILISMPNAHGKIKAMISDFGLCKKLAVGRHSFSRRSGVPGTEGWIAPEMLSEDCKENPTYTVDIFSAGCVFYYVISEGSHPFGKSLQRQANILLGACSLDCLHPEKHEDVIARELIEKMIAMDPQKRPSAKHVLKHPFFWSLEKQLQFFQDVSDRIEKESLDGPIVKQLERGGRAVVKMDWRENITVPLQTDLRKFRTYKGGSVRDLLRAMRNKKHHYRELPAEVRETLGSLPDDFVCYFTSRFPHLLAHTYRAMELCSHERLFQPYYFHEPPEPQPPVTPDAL

| SMILES | IC50 [nM] |
| --- | --- |
| Cc1cc(NS(=O)(=O)Cc2ccccc2)c(F)cc1Oc1ncccc1-c1ccnc(N[C@H]2CCCNC2)n1 [Compound 158, (S)-N-(2-fluoro-5-methyl-4-(3-(2-(piperidin-3-ylamino)pyrimidin-4-yl)pyridin-2-yloxy)phenyl)(phenyl)methanesulfonamide] | 5.1 |
| CCC1CCN(c2ccc(Oc3ncccc3-c3ccnc(N[C@H]4CCCNC4)n3)c(F)c2F)C1=O (single isomer, unassigned) [Compound 249] | 160 |
| COc1ccc(S(=O)(=O)Nc2ccc(Oc3ncccc3-c3ccnc(N[C@H]4CCCNC4)n3)c(F)c2F)cc1 [Compound 211, (S)-N-(2,3-difluoro-4-((3-(2-(piperidin-3-ylamino)pyrimidin-4-yl)pyridin-2-yl)oxy)phenyl)-4-methoxybenzenesulfonamide] | 33 |
| N#Cc1ccc(CS(=O)(=O)Nc2c(F)cc(Oc3ncccc3-c3ccnc(N[C@@H]4CNC[C@@H](F)C4)n3)c(F)c2F)cc1 [Compound 191, 1-(4-cyanophenyl)-N-(2,3,6-trifluoro-4-((3-(2-(((3S,5S)-5-fluoropiperidin-3-yl)amino)pyrimidin-4-yl)pyridin-2-yl)oxy)phenyl)methanesulfonamide] | 4.3 |
| N#Cc1cccc(S(=O)(=O)Nc2ccc(Oc3ncccc3-c3ccnc(N[C@H]4CCCNC4)n3)c(F)c2F)c1 [Compound 220, (S)-3-cyano-N-(2,3-difluoro-4-((3-(2-(piperidin-3-ylamino)pyrimidin-4-yl)pyridin-2-yl)oxy)phenyl)benzenesulfonamide] | 19 |
| COC1CNCC(Nc2nccc(-c3cccnc3Oc3cc(F)c(NS(=O)(=O)Cc4ccccc4)c(F)c3F)n2)C1 (single isomer, unassigned) [Compound 319, 1-Phenyl-N-(2,3,6-trifluoro-4-((3-(2-((5-methoxypiperidin-3-yl)amino)pyrimidin-4-yl)pyridin-2-yl)oxy)phenyl)methanesulfonamide] | 0.48 |
| C[C@H]1CNC[C@@H](Nc2nccc(-c3cccnc3Oc3ccc(NS(=O)(=O)Cc4ccccc4)c(F)c3F)n2)C1 [Compound 111, N-(2,3-difluoro-4-((3-(2-(((3S,5R)-5-methylpiperidin-3-yl)amino)pyrimidin-4-yl)pyridin-2-yl)oxy)phenyl)-1-phenylmethanesulfonamide hydrochloride] | 4.4 |
| CCC(F)(F)CS(=O)(=O)Nc1c(F)cc(Oc2ncc(F)cc2-c2ccnc(N[C@@H]3CNC[C@@H](F)C3)n2)c(F)c1F [Compound 268, 2,2-Difluoro-N-(2,3,6-trifluoro-4-((5-fluoro-3-(2-(((3S,5S)-5-fluoropiperidin-3-yl)amino)pyrimidin-4-yl)pyridin-2-yl)oxy)phenyl)butane-1-sulfonamide] | 1.1 |
| CC(F)C1CNCC(Nc2nccc(-c3cccnc3Oc3cc(F)c(NS(=O)(=O)Cc4ccccc4)c(F)c3F)n2)C1 (single isomer, unassigned) [Compound 345, 1-Phenyl-N-(2,3,6-trifluoro-4-((3-(2-((5-(1-fluoroethyl)piperidin-3-yl)amino)pyrimidin-4-yl)pyridin-2-yl)oxy)phenyl)methanesulfonamide hydrochloride] | 0.17 |
| O=S(=O)(CC1CC2(CCC2)C1)Nc1ccc(Oc2ncccc2-c2ccnc(N[C@H]3CCCNC3)n2)c(F)c1F [Compound 209, (S)-N-(2,3-difluoro-4-((3-(2-(piperidin-3-ylamino)pyrimidin-4-yl)pyridin-2-yl)oxy)phenyl)-1-(spiro[3.3]heptan-2-yl)methanesulfonamide] | 7.5 |
| C[C@@]1(F)CNC[C@@H](Nc2nccc(-c3cccnc3Oc3cc(F)c(NS(=O)(=O)Cc4c(F)cccc4F)c(F)c3F)n2)C1 [Compound 282, 1-(2,6-Difluorophenyl)-N-(2,3,6-trifluoro-4-((3-(2-(((3S,5S)-5-fluoro-5-methylpiperidin-3-yl)amino)pyrimidin-4-yl)pyridin-2-yl)oxy)phenyl)methanesulfonamide] | 0.27 |
| O=S(=O)(Cc1ccccc1F)Nc1c(F)cc(Oc2ncccc2-c2ccnc(NC3CNCC(C4CC4)C3)n2)c(F)c1F (single isomer, unassigned) [Compound 324, N-(4-((3-(2-((5-Cyclopropylpiperidin-3-yl)amino)pyrimidin-4-yl)pyridin-2-yl)oxy)-2,3,6-trifluorophenyl)-1-(2-fluorophenyl)methanesulfonamide] | 0.4 |
| O=S(=O)(Cc1cccc(C(F)(F)F)c1)Nc1c(F)cc(Oc2ncccc2-c2ccnc(N[C@@H]3CNC[C@@H](F)C3)n2)c(F)c1F [Compound 374, N-(2,3,6-Trifluoro-4-((3-(2-(((3S,5S)-5-fluoropiperidin-3-yl)amino)pyrimidin-4-yl)pyridin-2-yl)oxy)phenyl)-1-(3-(trifluoromethyl)phenyl)methanesulfonamide] | 0.2 |
| CC1(CF)CNCC(Nc2nccc(-c3cccnc3Oc3cc(F)c(NS(=O)(=O)Cc4ccccc4)c(F)c3F)n2)C1 (single isomer, unassigned) [Compound 295, 1-Phenyl-N-(2,3,6-trifluoro-4-((3-(2-((5-(fluoromethyl)-5-methylpiperidin-3-yl)amino)pyrimidin-4-yl)pyridin-2-yl)oxy)phenyl)methanesulfonamide] | 41 |
| O=S(=O)(Cc1ccccc1C(F)(F)F)Nc1c(F)cc(Oc2ncccc2-c2ccnc(N[C@@H]3CNC[C@@H](F)C3)n2)c(F)c1F [Compound 373, N-(2,3,6-Trifluoro-4-((3-(2-(((3S,5S)-5-fluoropiperidin-3-yl)amino)pyrimidin-4-yl)pyridin-2-yl)oxy)phenyl)-1-(2-(trifluoromethyl)phenyl)methanesulfonamide] | 0.3 |
| O=S(=O)(Cc1cccc(Cl)c1)Nc1ccc(Oc2ncccc2-c2ccnc(N[C@H]3CCCNC3)n2)c(F)c1F [Compound 225, (S)-1-(3-chlorophenyl)-N-(2,3-difluoro-4-((3-(2-(piperidin-3-ylamino)pyrimidin-4-yl)pyridin-2-yl)oxy)phenyl)methanesulfonamide] | 6.1 |
| O=S(=O)(Nc1cccc(Oc2ncccc2-c2ccnc(N[C@H]3CCCNC3)n2)c1)c1ccccc1Cl [Compound 132, (S)-2-Chloro-N-(3-((3-(2-(piperidin-3-ylamino)pyrimidin-4-yl)pyridin-2-yl)oxy)phenyl)benzenesulfonamide hydrochloride] | 32 |
| CCN(C)S(=O)(=O)Nc1c(F)cc(Oc2ncccc2-c2ccnc(N[C@@H]3CNC[C@@H](F)C3)n2)c(F)c1F [Compound 269, 4-(2-(4-((Ethyl(methyl)sulfamoyl)amino)-2,3,5-trifluoro-phenoxy)-3-pyridyl)-2-(((3S,5S)-5-fluoro-3-piperidyl)amino)pyrimidine] | 1.1 |
| COc1ccccc1S(=O)(=O)Nc1ccc(Oc2ncccc2-c2ccnc(N[C@H]3CCCNC3)n2)c(F)c1F [Compound 224, (S)-N-(2,3-difluoro-4-((3-(2-(piperidin-3-ylamino)pyrimidin-4-yl)pyridin-2-yl)oxy)phenyl)-2-methoxybenzenesulfonamide] | 40 |
| O=S(=O)(Cc1c(F)cccc1F)Nc1c(F)cc(Oc2ncccc2-c2ccnc(N[C@@H]3CNC[C@@H](F)C3)n2)c(F)c1F [Compound 363, 1-(2,6-Difluorophenyl)-N-[2,3,6-trifluoro-4-[[3-[2-[[(3S,5S)-5-fluoro-3-piperidyl]amino]pyrimidin-4-yl]-2-pyridyl]oxy]phenyl]methanesulfonamide] | 0.2 |
| Cc1ccc(CS(=O)(=O)Nc2c(F)cc(Oc3ncccc3-c3ccnc(N[C@@H]4CNC[C@@H](F)C4)n3)c(F)c2F)c(F)c1 [Compound 384, 1-(2-Fluoro-4-methylphenyl)-N-(2,3,6-trifluoro-4-((3-(2-(((3S,5S)-5-fluoropiperidin-3-yl)amino)pyrimidin-4-yl)pyridin-2-yl)oxy)phenyl)methanesulfonamide] | 0.3 |
| O=S(=O)(Nc1ccc(Oc2ncccc2-c2ccnc(N[C@H]3CCCNC3)n2)c(F)c1F)c1cc(F)cc(F)c1 [Compound 206, N-[2,3-Difluoro-4-[[3-[2-[[(3S)-3-piperidyl]amino]pyrimidin-4-yl]-2-pyridyl]oxy]phenyl]-3,5-difluoro-benzenesulfonamide] | 8.2 |
| O=S(=O)(CC1CC1(F)F)Nc1c(F)cc(Oc2ncccc2-c2ccnc(N[C@@H]3CNC[C@@H](F)C3)n2)c(F)c1F (stereo partly drawn) [Compound 271, 1-(2,2-Difluorocyclopropyl)-N-(2,3,6-trifluoro-4-((3-(2-(((3S,5S)-5-fluoropiperidin-3-yl)amino)pyrimidin-4-yl)pyridin-2-yl)oxy)phenyl)methanesulfonamide] | 3.6 |
| O=S(=O)(CC12CCC(CC1)C2)Nc1c(F)cc(Oc2ncccc2-c2ccnc(N[C@@H]3CNC[C@@H](F)C3)n2)c(F)c1F [Compound 376, 1-(Bicyclo[2.2.1]heptan-1-yl)N-(2,3,6-trifluoro-4-((3-(2-(((3S,5S)-5-fluoropiperidin-3-yl)amino)pyrimidin-4-yl)pyridin-2-yl)oxy)phenyl)methanesulfonamide] | 0.2 |
| Cc1c(NC(=O)Cc2ccc(Cl)cc2)ccc(Oc2ncccc2-c2ccnc(N[C@H]3CCCNC3)n2)c1C [Compound 130, (S)-2-(4-Chlorophenyl)-N-(2,3-dimethyl-4-((3-(2-(piperidin-3-ylamino)pyrimidin-4-yl)pyridin-2-yl)oxy)phenyl)acetamide] | 170 |
| COCCN(C)[C@H]1CC[C@H](Nc2nccc(-c3cccnc3Oc3cc(F)c(NS(=O)(=O)Cc4ccc(F)cc4)c(F)c3F)n2)CC1 [Compound 341, 1-(4-Fluorophenyl)-N-(2,3,6-trifluoro-4-((3-(2-(((1r,4r)-4-((2-methoxyethyl)(methyl)amino)cyclohexyl)amino)pyrimidin-4-yl)pyridin-2-yl)oxy)phenyl)methanesulfonamide hydrochloride] | 0.5 |
